For assay [1], the system named is Primary Gingival Fibroblast. As to the kind of experiment: MTT cell viability assay, normal cells. Type of assay: cell-based, human. How it is done: The viability of SCC cell lines and primary human fibroblast cells was evaluated using the MTT assay to determine half maximal inhibitory concentration (IC50). Briefly, cells were grown in triplicate in 96-well plates (5 × 10^3 cells/well) until confluence. Then the medium was removed, fresh medium was added, and the cells were returned to the incubator in the presence of different compounds. DMSO at the same concentrations was used as a 100% cell viability control. After 48 h, cells were incubated with 5 mg/mL MTT reagent (3-(4,5-dimethyl-2-thiazolyl)-2,5-diphenyl-2-H-tetrazolium bromide) (Sigma-Aldrich Co., St. Louis, MO, USA) for 3.5 h. After that, formazan crystals were dissolved in MTT solvent solution (DMSO/methanol 1:1 v/v), and the absorbance at 560 nm was evaluated using an EPOCH microplate spectrophotometer (BioTek Instruments, Winooski, VT, USA) with the background absorbance at 670 nm subtracted. Each of the 12 compounds (7a–7l) was tested at six different concentrations, ranging from 6.25 to 200 μM in cancer and normal cell lines. Control (carboplatin) was tested at six different concentrations ranging from 25 μM to 800 μM in cancer cells and from 50 μM to 1600 μM in normal cells.
Half-maximal inhibitory concentration (IC50) values were obtained from the MTT assay of at least three independent replicates through nonlinear regression analysis using GraphPad Prism 5.0 software (Intuitive Software for Science, San Diego, CA, USA). Data were presented as means ± standard deviation (SD). A log dose–response curve (inhibitor vs response) using the least-squares method was used to determine the IC50 and SD from the data. The selectivity index (SI) was calculated as the ratio between the IC50 in normal cells and the IC50 in cancer cells, obtained by dividing the IC50 of normal cells by the IC50 of cancer cells.

The target in the next assay is T1, PKM2 (Homo sapiens, UniProt P14618).
T1 construct: purchased Sigma-Aldrich Co., St. Louis, MO, USA
Nature of the assay: Quantification of ATP production from PKM2 reaction. The format is biochemical. The note with it: 1 × IC50 of 7f (55.13 μM). The procedure: The measurement of PKM2 activity through ATP production was conducted to confirm whether the enzymatic inhibition observed in the previous assay was indeed due to PKM2. The master mix was prepared as indicated above. In a microtube containing the master mix prepared in the presence of 1 × IC50 7f, the control received the addition of 0.5 mM PEP for 3 min. Afterward, CellTiter-Glo reagent (Promega, Madison, WI, USA) was added as indicated by the manufacturer’s instructions, and the samples were kept shielded from light for 2 min. After the specified time, the sample was taken for reading in a Turner Designs TD 2020 luminometer (Turner Designs, Sunnyvale, CA, USA).

In the next assay the test system is Hep-G2. As to the kind of experiment: MTT cell viability assay, Hep-G2. Type of assay: cell-based, human.
Assay [2] deals with caspases 3 and 7 in SCC-9 cells. Nature of the assay: Caspase-Glo 3/7 assay. The format is cell-based, human. Particulars: SCC-9, 2 × IC50, 12 and 24 h. The procedure: Analysis of activation of caspases 3 and 7 was assessed by using the Caspase-Glo 3/7 Assay Kit (Promega Corporation, Madison, WI, USA; G8090). The reagent provided by the kit causes cell lysis; therefore, parallelly, a cell viability assay using violet crystal was performed to normalize the detection of active caspases by viable cells. Caspases 3 and 7 procedures consisted of seeding 5 × 10^3 SCC-9 cells in a 96-well plate. […] A plate with wells without cells was used as a control. Cells and cell-free wells remained in treatment at times of interest. Then, caspase activity was detected according to the manufacturer’s instructions. Results were obtained using a TD 20/20 luminometer (Turner Designs, Sunnyvale, CA, USA). […] Then the medium was removed, and the wells were gently washed with PBS. PBS was removed, and cells were fixed with 100% alcohol that was removed after 10 min. Cells were stained with 0.05% violet crystal for 10 min. Wells were gently washed with deionized water, and […] methanol was added to each well, followed by agitation of the plate for 10 min. Absorbance of wells was read in an EPOCH (BioTek Instruments, Winooski, VT, USA) at an absorbance of 595 nm.

T1 sequence (P14618 whole entry): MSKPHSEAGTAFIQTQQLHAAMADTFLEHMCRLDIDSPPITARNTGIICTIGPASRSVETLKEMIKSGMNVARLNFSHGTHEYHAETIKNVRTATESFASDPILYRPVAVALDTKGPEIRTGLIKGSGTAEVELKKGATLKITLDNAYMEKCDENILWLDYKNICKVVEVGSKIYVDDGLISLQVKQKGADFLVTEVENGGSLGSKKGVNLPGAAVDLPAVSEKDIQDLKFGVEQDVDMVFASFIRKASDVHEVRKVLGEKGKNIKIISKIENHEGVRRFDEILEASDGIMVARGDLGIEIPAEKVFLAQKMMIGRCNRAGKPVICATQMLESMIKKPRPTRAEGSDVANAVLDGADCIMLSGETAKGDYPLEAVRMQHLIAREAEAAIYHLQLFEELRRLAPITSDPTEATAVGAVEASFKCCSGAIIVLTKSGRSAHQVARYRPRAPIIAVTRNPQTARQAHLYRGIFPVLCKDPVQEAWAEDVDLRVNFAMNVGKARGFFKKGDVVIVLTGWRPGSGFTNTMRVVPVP

In the case of `O=C1C=C(OCc2cn(CCCOc3cc(=O)oc4ccccc34)nn2)C(=O)c2ccccc21` [Compound 7f, 2-((1-(3-((2-Oxo-2H-chromen-4-yl)oxy)propyl)-1H-1,2,3-triazol-4-yl)methoxy)naphthalene-1,4-dione], the IC50 in assay [1] (Homo sapiens, Fibroblast, MTT, 48 h, normal cells) turned out to be 22.8 µM; in the assay with Hep-G2 (HepG2, MTT, human hepatocellular carcinoma), 16 µM. In addition, in assay [1] (average of SI for SCC-9, SCC-4 and SCC-25 versus gingival fibroblast), the “Average SI” value is 2.26. Moreover, the inhibition at 55.13 µM on PKM2 was about 50%. For the same compound, the “SI Hep-G2” value in the assay on Hep-G2 (versus human gingival fibroblast) came out at 1.42. Besides, the “caspases 3 and 7 activity, luminescent signal versus DMSO” value in assay [2] is “approximately 2 fold”.

For the origin of these results see article PMC12750388, “Coumarin-1,2,3-Triazole Conjugates as Molecular Scaffolds for the Selective Induction of ROS-Driven Apoptosis in Cancer Cells in the Development of Pyruvate Kinase M2 Inhibitors” (ACS Omega, 2025).
